Data: patent US20210251953A1, “COMPOSITIONS FOR TREATING AND/OR […]-A[…]” (U[…] DE OLAVIDE, priority 2018, published 2021)
Like-named read-outs stand apart in the source and are kept apart here.

Columns and labels:
[1] = test system: GMC101 strain of C. elegans; assay: Temperature-dependent paralysis assay in C. elegans Alzheimer's disease model; format: in vivo; conditions: for number of paralyzed worms: 1 μg/ml, counted after 18-hour incubation at 25° C.
Protocol: Paralysis assay: Worms were grown at a non-restrictive temperature of 16° C. until they reached the L4-young adult stage. The temperature was then shifted to 25° C. The number of paralyzed and non-paralyzed animals were counted after an 18-hour incubation at the restrictive temperature of 25° C.
Statistical analysis: The data were analyzed using a 2-tailed chi-square test in contingency table. Statistical analysis was performed using the GraphPad Prism software (version 7.00).

[2] = test system: C. elegans Parkinson's disease model strain NL5901; assay: Mobility (pitches per minute) in C. elegans Parkinson's disease model; format: in vivo; conditions: STX64 1 μg/ml in DMSO; nematodes overexpressing human α-synuclein in muscle cells, monitored every two days; vs DMSO
Protocol: C. elegans models of Parkinson's disease: We tested if sul-2 mutations or STX64 (Sigma cat. No. 51950) treatment at 1 μg/ml concentration dissolved in DMSO improved the symptoms caused by the overexpression of human α-synuclein in muscle cells (see the following references for information on the model used: van Ham et al., 2008. PLoS Genet. 4(3):e1000027; Gidalevitz et al., 2009. PLoS Genet. 5(3):e1000399; van Ham et al., 2010. Cell. 142(4):601-12). In particular, nematodes were synchronized at 20° C. and monitored every two days. On each day of monitoring, a nematode was placed in a drop of M9 buffer, allowing 30 seconds accommodation and later counting number of pitches in one minute, assuming that a pitch occurs when the head of the nematode crosses the axial axis. N=20 for each day assayed and condition (this protocol was adapted from Van Ham et al., 2010. Cell. 142: 601-612).

α-synuclein aggregates = assay: Counting of fluorescent α-synuclein aggregates in C. elegans Parkinson's disease model; format: in vivo; conditions: NL5901 nematodes expressing α-synuclein fused to YFP; STX64 vs DMSO
Protocol: Further, we tested the effect of the sul-2 deletion and the administration of STX64 on the aggregation of α-synuclein. To quantify the aggregates, animals were transferred to pads comprising 2% agarose and immobilized using 25 mM levamisole. The number of α-synuclein aggregates was determined by counting fluorescent aggregates at 40× magnification, from first bulb pharyngeal to second bulb.

[3] = test system: 35 polyglutamine (polyQ) repeats fused to YFP, strain AM140; assay: Counting of polyQ aggregates in C. elegans Huntington's disease model; format: in vivo; conditions: STX64 1 μg/ml in DMSO; counted at day 5 of adulthood
Protocol: To quantify the aggregates, animals were transferred to pads comprising 2% agarose and immobilized using 25 mM levamisole. The number of polyQ aggregates was determined by counting fluorescent aggregates at 10× magnification, from first bulb pharyngeal to second bulb.

[4] = test system: C. elegans Alzheimer's disease model strain CL2006; assay: Paralysis in C. elegans Alzheimer's disease model expressing β-amyloid in muscle cells; format: in vivo; conditions: nematodes expressing β-amyloid in muscle cells, monitored from 1st day of adulthood
Protocol: C. elegans model of Alzheimer's disease: We also tested an Alzheimer's disease model expressing β-amyloid protein in muscle cells which causes paralysis in the nematode as it ages. Nematodes were synchronized at 20° C. Paralysis was monitored from 1st day of adulthood, by observing whether there is a lack of movement after the nematode was stimulated with a platinum pick.

[5] = test system: wild type mice injected with β-amyloid oligomers in the hippocampus; assay: Step-through passive avoidance test after intrahippocampal β-amyloid oligomers (acute AD mouse model); format: in vivo
Protocol: (§1) Mice strains and conditions: The male Swiss (CD1) and APP-PS1 (Blanchard et al., 2003. Exp Neural. 184(1):247-63) mice used in this study were purchased from an authorized provider (University of Seville, Spain) and they were habituated to standard animals housing conditions for 2-3 weeks (a 12 h light/dark cycle, temperature and humidity). Behavioral studies were performed with 8 week-old Swiss mice, and >15 month-old APP-PS1 mice in C57Black background. For histological studies, male APP-PS1 mice from 2 to >15 months of age were used. All experiments were performed in accordance with European Union guidelines (2010/63/EU) and with Spanish regulations for the use of laboratory animals in chronic experiments (RD 53/2013 on the care of experimental animals: BOE Aug. 2, 2013), and the approval of the University Pablo de Olavide animal care committees was obtained prior to performing this study.
Mice local drug infusion: Mice were anesthetized with 4% chloral hydrate ([…] of body weight, i.p.) and when fully anesthetized, they were situated in a stereotactic frame. In order to injure the hippocampus, 0.5 μl of 5 μM solution of β-amyloid oligomers were injected bilaterally into the dorsal hippocampus of the mice at the following stereotactic coordinates: AP=−2.2 mm, ML=±1.5 mm, V=−1.5 mm from the Bregma. The mice were then allowed to recover for at least 15 days. […]

β-amyloid = β-amyloid immunohistochemistry and histological analysis in APP-PS1 mice; format: in vivo
Protocol: as §1
(§2) Mice Oral STX administration: STX64 was dissolved in drinking water at 0.005 mg/ml. Mice were exposed to STX solution during 3-4 weeks and the water intake was registered every day during the treatment. The estimated daily dose of STX64 was between 1-2 mg/Kg of body weight.
Immunohistochemistry and histological analysis: For immunohistochemistry, an antibody against β-amyloid (1:3000, Sigma-Aldrich) was used. Antibody staining was visualized with H2O2 and diaminobenzidine, and enhanced with nickel. To minimize variability, at least 5 sections per mice were analyzed under a bright-field DMRB RFY HC microscope (Leica). In each section, the percentage area occupied by β-amyloid, the density and the average size of β-amyloid accumulations were quantified using Image-J software (downloaded as a free software package from the public domain: http://rsb.info.nih.gov/ij/download.html).

APP-PS1 mice = assay: Step-through passive avoidance test in APP-PS1 mice (chronic AD mouse model); format: in vivo; conditions: APP-PS1 mice older than 15 months, oral STX64 during 3-4 weeks; vs vehicle and wild type mice
Protocol: as §1, §2
Step-through passive avoidance (PA) test: Mice have an innate preference for dark and enclosed environments. […]

R6/1 mice = assay: Open-field motor activity test in mouse model of Huntington's disease; format: in vivo; conditions: oral STX64 0.005 mg/ml in drinking water from 1 month of age for 1 month, tested at 2 months
Protocol: Mice strains and conditions: The R6/1 mice (Yi Li et al., 2005. NeuroRX. 2(3): 447-464; Mangiarini et al., 1996. Cell. 87(3):493-506) used in this study were purchased from an authorized provider and they were habituated to standard animals housing conditions for 2-3 weeks (a 12 h light/dark cycle, temperature and humidity). Motor activity studies were performed with 2-month-old R6/1 mice. All experiments were performed in accordance with European Union guidelines (2010/63/EU) and with Spanish regulations for the use of laboratory animals in chronic experiments (RD 53/2013 on the care of experimental animals: BOE Aug. 2, 2013), and the approval of the University Pablo de Olavide animal care committees was obtained prior to performing this study.
Mice Oral STX administration: STX64 was dissolved in drinking water at 0.005 mg/ml. 1-month-old mice were exposed to STX solution for 1 month and the water intake was registered every day during the treatment. The estimated daily dose of STX64 was between 1-2 mg/Kg of body weight.
Motor activity test: Locomotor activity was tested in a non-stressful open-field (56×40×40 cm) for 15 minutes. The distance traveled by the mice was estimated with Smart video-tracking software (Panlab).

[6] = test system: wild type worms and sul-2 deletion mutants; conditions: cited from earlier work

SMILES | number of paralyzed worms [1] | mobility (number of pitches in one minute) [2] | number of bigger α-synuclein aggregates (≥3 μm) (α-synuclein aggregates) | number of smaller α-synuclein aggregates (<1 μm) (α-synuclein aggregates) | total number of polyQ aggregates [3] | paralysis with age [4] | cognitive deficiencies (escape latency, passive avoidance test) ([5]; local (intrahippocampal) STX64, 0.5 μl of 1 mg/ml, 20 minutes before β-amyloid oligomers) | cognitive deficiencies (escape latency, passive avoidance test) ([5]; systemic (oral) STX64, 0.005 mg/ml in drinking water) | β-amyloid immunoreactive area (β-amyloid; >15-month-old APP-PS1 mice, 3-4 weeks oral STX64 (0.005 mg/ml in drink water), frontal cortex and hippocampus, vs vehicle) | β-amyloid plaque density (β-amyloid; >15-month-old APP-PS1 mice, 3-4 weeks oral STX64, frontal cortex and hippocampus, vs vehicle) | average β-amyloid plaque size (β-amyloid; >15-month-old APP-PS1 mice, 3-4 weeks oral STX64, frontal cortex, vs vehicle) | average β-amyloid plaque size (β-amyloid; >15-month-old APP-PS1 mice, 3-4 weeks oral STX64, hippocampus, vs vehicle) | β-amyloid deposition compared with the time-course in untreated APP-PS1 mice (β-amyloid; >15 month-old APP-PS1 mice, 3-4 weeks oral STX64, frontal cortex and hippocampus) | cognitive deficiencies (passive avoidance test) (APP-PS1 mice) | motor activity (distance traveled in open-field, 15 minutes) (R6/1 mice) | effect on paralysis, comparison of sul-2 absence, STX64 and EMATE ([1]; GMC101 strain) | longevity ([6]; sul-2 deletion mutants) | longevity ([6]; wild type worms)
C[C@]12CC[C@@H]3c4ccc(OS(N)(=O)=O)cc4CC[C@H]3[C@@H]1CCC2=O [EMATE, estrone sulfamate] | reduced the number of paralyzed worms | – | – | – | – | – | – | – | – | – | – | – | – | – | – | – | – | –
NS(=O)(=O)Oc1ccc2c3c(c(=O)oc2c1)CCCCC3 [STX64] | reduced the number of paralyzed worms | significantly improved mobility | increasing the number of bigger aggregates | decreased the number of smaller aggregates | reduced the total number of aggregates | delayed paralysis | reverted cognitive deficiencies | reverted cognitive deficiencies | significant reduction | significant reduction | significant reduction | a significant reduction, except for plaque size in hippocampus | reduced β-amyloid deposition in APP-PS1 mice older than 15 months to that observed in APP-PS1 mice of 10-12 months of age | completely reverted cognitive deficiencies | decrease in motor activity can be avoided | appeared to have the greatest effect | did not further increase the longevity | the same longevity effects as in the sul-2 mutants
